Results as given in patent US20180207078A1, “COMBINATION OF NATURAL SUBSTANCES COMPRISING AT LEAST ONE […] ACID AND AT LEAST ONE GUGGULSTERONE, AND USE THEREOF FOR COSMETIC APPLICATIONS” (OntoChem, GmbH, priority 2015, published 2018).

Columns and labels:
[1] = tested on: 3T3-L1 mouse fibroblasts; assay: Nile red assay of cellular lipid content during adipogenesis; assay type: cell-based; settings: for Lipid content: treatment D0-D2, read on D6, stimulated untreated cells = 100%, unstimulated = 0%; for IC50: Mus musculus, 3T3-L1, 144 h, treatment for the entire 6-day adipocyte differentiation (D0-D6), read-out: IC50 value for the inhibition of cellular lipid accumulation
Method: The 3T3-L1 mouse fibroblasts were cultivated in Dulbecco's modified Eagle's medium (DMEM) incl. 10% foetal calf serum (FCS) and 2 mM L-glutamine at 37° C., 95% humidity and 5% CO2.
Adipocyte differentiation and maturation was induced as described (Yang J. Y. et al., Obesity 2008, 16, 16-22; Shugart E. C. and Umek R. M., Cell Growth & Differentiation 1997, 8, 1091-1098). The cells were stimulated not only with dexamethasone, as is generally conventional, but also with cortisol, which is more physiological.
The cells were seeded into 96-well plates and cultivated to confluence. Two days after reaching cell confluence (D0=day 0), cell differentiation was induced by adding DMEM with 10% FCS, 167 nM insulin, […] and 1 μM dexamethasone or 200 nM cortisol for two days (D2). The cells were then cultivated for a further two days in DMEM with 10% FCS and 167 nM insulin (D4), followed by cultivation in DMEM/10% FCS for a further four days (D8). Ultimately, >20-30% of the cells were mature adipocytes with accumulated lipid stores.
As an indicator for the degree of adipogenesis, the lipid content of the cells (intracellular lipid droplets) was detected by means of the lipophilic colour reagent Nile red, as described (Yang J. Y. et al., Obesity 2008, 16, 16-22; Greenspan P., The Journal of Cell Biology 1985, 100, 965-973). 3T3-L1 cells (5,000-10,000 cells/well), after reaching confluence, were cultivated for a further two days in 96-well plates (D0). The cells were then treated with guggulsterone and/or glycyrrhetinic acid, individually or in combination, for days D0-D2, D2-D4, D4-D6 and D0-D6 of the adipogenesis (concentration range: 1-200 μM). The medium, with or without test substance(s), was changed or renewed every two days. Cells treated as follows served as controls: (1) pure cell culture medium (undifferentiated control), (2) pure differentiation medium (untreated control), and (3) DMSO, corresponding to the highest DMSO concentration in the test batches, in differentiation medium (DMSO control).
On day 6 (D6), the intracellular lipid accumulation (lipid droplets) was quantified by means of a Nile red assay. To that end, the cell medium was discarded and the cells were washed with 100 μl/well of PBS (pH 7.4). The cells were then incubated for 20 minutes at room temperature with 50 μl/well of Nile red in PBS (10 μg/ml). The lipid content was determined fluorometrically using a Synergy 2 plate reader (BioTek, Winooski, USA) (excitation: 485 nm, emission: 560 nm, mirror: 550 nm). Nile red selectively stains neutral lipids, for example triacylglycerides in intracellular droplets.
The lipid content, that is to say the storage of triacylglycerides in intracellular lipid droplets, is an indicator for the degree of adipogenesis. […] Since the staining reagent Nile red, upon excitation at 485 nm and fluorescence detection at 560 nm, is very selective for neutral lipids, it was thus possible specifically to measure the intracellular accumulation of triacylglycerides during advancing adipogenesis.
On day 6 of the adipogenesis (D6), the accumulation of intracellular lipid droplets was measured fluorometrically by means of a Nile red assay (excitation: 485 nm; emission: 560 nm; 550 nm mirror). The data were normalised and the lipid accumulation is given in percent; unstimulated cells were used as 0% reference, and stimulated but untreated cells were used as 100% reference.

[2] = Resazurin-based cell viability assay; parameters: species or system mouse; settings: mouse, mature 3T3-L1 adipocytes; 250 μM (of each compound), 24-hour treatment, 1 μM dexamethasone stimulation; read-out: reduction of cell viability (number of mature adipocytes)
Method: (§1) The cell viability of mature adipocytes after treatment with a test compound was measured by means of a fluorimetric Resazurin-based assay. Vital, that is to say metabolically active, cells are capable of converting Resazurin into the fluorescent derivative Resorufin (Strotmann U. J. et al., Ecotox. Environ. Safety 1993, 25, 79-89). 3T3-L1 cells were seeded into 96-well plates (5,000-10,000 cells/well) and, as described above, cultivated to maturity (D8). […] Cells treated as follows served as controls: (1) pure cell culture medium (undifferentiated control), (2) pure differentiation medium (untreated control), (3) DMSO, corresponding to the highest DMSO concentration in the test batches, in differentiation medium (DMSO control), and (4) 150 μg/ml digitonin in DMEM (cell death control). After 24 hours, the incubation medium was discarded and the cells were washed with 100 μl/well of DMEM and then incubated for 2 hours under standard culture conditions with 50 μl/well of Resazurin solution (60 μM in DMEM). Finally, the Resorufin fluorescence was detected by means of a Synergy 2 plate reader (BioTek, Winooski, USA) (excitation: 540 nm, emission: 590 nm, mirror: 550 nm). […] Finally, the cell viability, as a measure of the number and fitness of the cells, was measured by means of a Resazurin assay.

[3] = tested on: caspases 3/7; assay: Caspase-Glo 3/7 apoptosis assay in mature adipocytes; assay type: cell-based, mouse; settings: 24 hours
Method: In order to evaluate a possible induction of apoptosis in mature adipocytes as a result of the treatment with (Z)-guggulsterone and/or glycyrrhetinic acid, a Caspase-Glo® 3/7 assay kit (Promega, Mannheim, Germany) was used.
3T3-L1 cells were seeded into 96-well plates (5,000-10,000 cells/well) and, as described above, cultivated to maturity (D8). On D8, the mature adipocytes were incubated for 24 hours under standard culture conditions with guggulsterone and/or glycyrrhetinic acid (1-250 μM). Cells treated as follows served as controls: (1) pure cell culture medium (undifferentiated control), (2) pure differentiation medium (untreated control), and (3) DMSO, corresponding to the highest DMSO concentration in the test batches, in differentiation medium (DMSO control). After 24 hours, the incubation medium was discarded, the cells were washed with 100 μl/well of DMEM, and then 150 μl/well of Caspase-Glo® 3/7 reagent in DMEM (1:1, v/v) were added. After incubation for 2 hours at room temperature, the luminescence signal of the reagent was detected by means of a Synergy 2 plate reader (BioTek, Winooski, USA).
The combination of 250 μM of each of the two compounds brought about an increase in caspase 3/7 activity by a factor of 3.5-4.0 as compared with untreated cells (FIG. 2).

[4] = tested on: 3T3 pre-adipocytes; assay: Fluorescence microscopy of lipid droplets (Nile red/DAPI); assay type: cell-based, mouse; settings: 100 μM, D0-D6, stimulation with 1 μM dexamethasone
Method: […] The incubation medium was then discarded and the cells were washed with PBS and stained with Nile red (10 μg/ml) and DAPI (1 μg/ml) in 50 μl/well of PBS for 20 minutes at room temperature. After removal of the staining solution, the cells were washed with PBS and fixed with 4% paraformaldehyde in PBS for 30 minutes at room temperature. Finally, the cells were washed three times with PBS and mounted on the object slide by means of Fluorescence Mounting Medium (Dako, Carpinteria, USA). The fluorescence microscopy images were taken by using a Zeiss Axio Observer.Z1 with ApoTome (Carl Zeiss Microlmaging, Jena, Germany) using the DAPI and GFP filter settings.

[5] = tested on: mature 3T3 adipocytes; assay: Resazurin-based cell viability assay; parameters: species or system mouse; settings: up to 250 μM, 24-hour treatment, 1 μM dexamethasone stimulation
Method: as §1

[6] = cited from earlier work

Compound | Lipid content ([1]; 10 μM) | Lipid content ([1]; 40 μM) | Lipid content ([1]; 100 μM) | IC50 [1] | cytotoxicity at 24 h, 250 μM [2] | increase in caspase 3/7 activity as compared with untreated cells ([3]; 250 μM (of each compound)) | lipid droplets versus stimulated untreated cells [4] | effect on cell viability [5] | induction of caspases 3/7 ([3]; dexamethasone or cortisol stimulation) | systemic administration that is not safe [6]
CC1(C)[C@@H](O)CC[C@]2(C)[C@H]3C(=O)C=C4[C@@H]5C[C@@](C)(C(=O)O)CC[C@]5(C)CC[C@@]4(C)[C@]3(C)CC[C@@H]12 [18β-glycyrrhetinic acid] | 98% | 91% | 7% | ~20 µM | 28% | 2.5-3.0 factor | significantly fewer and smaller lipid droplets |  |  | 
C/C=C1\C(=O)C[C@H]2[C@@H]3CCC4=CC(=O)CC[C@]4(C)[C@H]3CC[C@]12C [(Z)-guggulsterone] | 71% | 26% | 5% | ~5 µM |  |  | significantly fewer and smaller lipid droplets | did not impair the cell viability | no induction of caspases 3/7 | 
guggulsterone |  |  |  |  |  |  |  |  |  | more than 30 mg/day
